Source: ChEMBL document CHEMBL1148660, “Identification of an indole series of prostaglandin D2 receptor antagonists” (Bioorg Med Chem Lett, 2006)

What was measured:
[1] = biological target: T1, Thromboxane A2 receptor (Homo sapiens, UniProt P21731); assay: Binding affinity to TP receptor
T1 sequence (P21731 whole entry): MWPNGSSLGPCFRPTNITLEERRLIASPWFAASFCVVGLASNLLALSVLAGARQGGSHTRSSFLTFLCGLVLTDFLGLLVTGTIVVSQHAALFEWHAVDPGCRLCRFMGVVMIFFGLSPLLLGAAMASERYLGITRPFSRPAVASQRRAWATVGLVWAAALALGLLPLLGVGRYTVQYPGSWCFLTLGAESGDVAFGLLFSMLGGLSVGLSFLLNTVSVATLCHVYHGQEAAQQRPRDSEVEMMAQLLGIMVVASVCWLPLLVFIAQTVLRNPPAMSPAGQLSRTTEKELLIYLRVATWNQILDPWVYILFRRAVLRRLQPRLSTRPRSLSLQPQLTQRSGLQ

[2] = biological target: T2, Prostaglandin D2 receptor (Homo sapiens, UniProt Q13258); assay: Binding affinity to DP receptor
T2 sequence (Q13258 whole entry): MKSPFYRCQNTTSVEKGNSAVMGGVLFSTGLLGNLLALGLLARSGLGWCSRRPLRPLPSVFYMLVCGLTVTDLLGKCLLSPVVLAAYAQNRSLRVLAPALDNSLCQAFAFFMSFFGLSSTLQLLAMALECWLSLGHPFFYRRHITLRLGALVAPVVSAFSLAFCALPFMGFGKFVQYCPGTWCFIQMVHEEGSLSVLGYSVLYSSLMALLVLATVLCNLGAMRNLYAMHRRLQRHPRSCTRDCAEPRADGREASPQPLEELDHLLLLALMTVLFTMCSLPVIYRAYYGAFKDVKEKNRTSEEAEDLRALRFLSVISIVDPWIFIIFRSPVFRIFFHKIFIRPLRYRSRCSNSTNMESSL

[3] = biological target: Prostaglandin E2 receptor EP4 subtype (Homo sapiens, UniProt P35408); assay: Binding affinity to EP4 receptor
Chain of Prostaglandin E2 receptor EP4 subtype (P35408 whole entry): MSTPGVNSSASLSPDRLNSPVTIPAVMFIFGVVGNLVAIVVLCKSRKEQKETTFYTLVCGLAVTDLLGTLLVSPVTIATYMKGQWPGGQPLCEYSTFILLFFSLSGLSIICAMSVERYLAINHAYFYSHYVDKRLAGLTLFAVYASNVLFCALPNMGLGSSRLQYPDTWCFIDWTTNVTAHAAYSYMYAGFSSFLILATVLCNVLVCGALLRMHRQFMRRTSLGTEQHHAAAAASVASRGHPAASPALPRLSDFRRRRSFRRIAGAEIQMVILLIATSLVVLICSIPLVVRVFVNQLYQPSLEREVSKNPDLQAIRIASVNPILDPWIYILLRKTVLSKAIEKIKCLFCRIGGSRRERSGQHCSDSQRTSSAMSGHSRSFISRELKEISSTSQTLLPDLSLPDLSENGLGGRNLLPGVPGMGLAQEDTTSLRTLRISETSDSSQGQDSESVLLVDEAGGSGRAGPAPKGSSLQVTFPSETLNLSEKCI

[4] = biological target: T3, Prostaglandin E2 receptor EP3 subtype (Homo sapiens, UniProt P43115); assay: Binding affinity to EP3 receptor
T3 sequence (P43115 whole entry): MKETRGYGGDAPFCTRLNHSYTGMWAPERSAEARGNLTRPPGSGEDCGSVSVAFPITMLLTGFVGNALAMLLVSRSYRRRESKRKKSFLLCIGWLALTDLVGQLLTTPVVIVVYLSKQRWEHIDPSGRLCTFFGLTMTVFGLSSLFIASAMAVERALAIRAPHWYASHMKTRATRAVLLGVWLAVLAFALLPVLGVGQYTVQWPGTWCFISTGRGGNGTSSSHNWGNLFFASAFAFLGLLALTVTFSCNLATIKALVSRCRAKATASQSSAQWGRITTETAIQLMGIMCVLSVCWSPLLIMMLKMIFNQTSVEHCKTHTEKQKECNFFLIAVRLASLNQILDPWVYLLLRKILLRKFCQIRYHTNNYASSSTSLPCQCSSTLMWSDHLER

[5] = biological target: T2, Prostaglandin D2 receptor; assay: Activity at DP receptor assessed as inhibition of PGD2-induced cAMP accumulation in platelet rich plasma; format: functional
[6] = biological target: Prostaglandin E2 receptor EP2 subtype (Homo sapiens, UniProt P43116); assay: Binding affinity to EP2 receptor
Chain of Prostaglandin E2 receptor EP2 subtype (P43116 whole entry): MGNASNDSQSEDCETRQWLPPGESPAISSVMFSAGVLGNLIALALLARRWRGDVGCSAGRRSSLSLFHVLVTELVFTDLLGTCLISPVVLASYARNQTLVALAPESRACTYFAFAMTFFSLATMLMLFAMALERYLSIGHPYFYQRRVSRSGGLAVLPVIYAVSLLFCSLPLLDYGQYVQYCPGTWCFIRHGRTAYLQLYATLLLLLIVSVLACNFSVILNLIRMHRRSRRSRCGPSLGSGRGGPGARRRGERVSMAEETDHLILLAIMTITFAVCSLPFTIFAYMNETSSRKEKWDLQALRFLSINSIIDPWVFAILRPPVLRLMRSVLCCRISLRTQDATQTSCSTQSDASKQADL

[7] = biological target: Prostacyclin receptor (Homo sapiens, UniProt P43119); assay: Binding affinity to IP receptor
Chain of Prostacyclin receptor (P43119 whole entry): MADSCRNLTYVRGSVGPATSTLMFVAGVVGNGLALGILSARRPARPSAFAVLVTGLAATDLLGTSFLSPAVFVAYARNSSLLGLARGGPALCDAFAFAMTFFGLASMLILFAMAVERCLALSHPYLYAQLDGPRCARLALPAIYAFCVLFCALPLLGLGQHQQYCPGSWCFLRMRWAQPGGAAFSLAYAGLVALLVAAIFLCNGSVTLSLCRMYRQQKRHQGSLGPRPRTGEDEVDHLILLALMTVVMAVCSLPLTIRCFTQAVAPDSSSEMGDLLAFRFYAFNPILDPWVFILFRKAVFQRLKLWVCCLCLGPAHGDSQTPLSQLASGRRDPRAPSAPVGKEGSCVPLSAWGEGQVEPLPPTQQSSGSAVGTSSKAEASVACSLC

[8] = biological target: Prostaglandin F2-alpha receptor (Homo sapiens, UniProt P43088); assay: Binding affinity to FP receptor
Chain of Prostaglandin F2-alpha receptor (P43088 whole entry): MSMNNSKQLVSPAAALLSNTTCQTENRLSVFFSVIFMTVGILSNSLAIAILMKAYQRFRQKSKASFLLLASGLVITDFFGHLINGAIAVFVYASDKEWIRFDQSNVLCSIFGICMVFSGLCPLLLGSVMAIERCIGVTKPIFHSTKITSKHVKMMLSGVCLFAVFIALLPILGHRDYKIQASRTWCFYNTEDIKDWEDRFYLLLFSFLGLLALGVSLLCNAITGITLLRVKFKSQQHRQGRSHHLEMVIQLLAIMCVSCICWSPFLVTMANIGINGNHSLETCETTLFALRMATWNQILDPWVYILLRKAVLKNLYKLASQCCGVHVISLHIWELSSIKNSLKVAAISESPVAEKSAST

[9] = biological target: T2, Prostaglandin D2 receptor; assay: Activity at DP receptor assessed as inhibition of PGD2-induced cAMP accumulation in platelet; format: functional
[10] = biological target: T4, Prostaglandin E2 receptor EP1 subtype (Homo sapiens, UniProt P34995); assay: Binding affinity to EP1 receptor
T4 sequence (P34995 whole entry): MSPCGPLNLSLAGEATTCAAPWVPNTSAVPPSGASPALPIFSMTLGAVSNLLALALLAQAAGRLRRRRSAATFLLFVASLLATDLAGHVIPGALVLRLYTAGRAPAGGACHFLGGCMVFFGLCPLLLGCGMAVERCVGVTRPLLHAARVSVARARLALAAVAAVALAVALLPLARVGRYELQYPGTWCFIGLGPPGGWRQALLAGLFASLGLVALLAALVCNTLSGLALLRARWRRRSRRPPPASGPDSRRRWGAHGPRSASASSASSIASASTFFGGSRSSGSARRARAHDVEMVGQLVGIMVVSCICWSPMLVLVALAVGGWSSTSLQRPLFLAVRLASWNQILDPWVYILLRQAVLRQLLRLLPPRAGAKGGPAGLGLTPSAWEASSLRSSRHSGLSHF

Ki [1]	Ki [2]	SMILES	further results
0.2 µM	0.0017 µM	CS(=O)(=O)c1cc(Br)c2c(c1)c1c(n2Cc2ccc(Cl)cc2)C(CC(=O)O)CC1 (stereo not drawn)	–
0.0024 µM	0.036 µM	O=C(O)CC1CCCc2c1n(Cc1ccc(Cl)cc1)c1ccccc21 (stereo not drawn)	–
2.1 µM	0.3 µM	CS(=O)(=O)c1ccc2c(c1)c1c(n2Cc2ccc(Cl)cc2)C(CC(=O)O)CC1 (stereo not drawn)	–
0.18 µM	0.001 µM	CS(=O)(=O)c1cc(Br)c2c(c1)c1c(n2Cc2ccc3ccc(Cl)cc3n2)C(CC(=O)O)CC1 (stereo not drawn)	–
7.1 µM	0.0018 µM	CC(O)c1cc(S(C)(=O)=O)cc2c3c(n(Cc4ccc(Cl)cc4)c12)[C@@H](CC(=O)O)CC3 (stereo partly drawn)	Ki [3]: > 2.9 µM; Ki [4]: > 20 µM; IC50 [5]: 0.0086 µM; Ki [6]: 0.39 µM; Ki [7]: > 20 µM; Ki [8]: > 20 µM; IC50 [9]: 0.002 µM; Ki [10]: > 20 µM
0.1 µM	0.0041 µM	CN(C)S(=O)(=O)c1cc(Br)c2c(c1)c1c(n2Cc2ccc(Cl)cc2)C(CC(=O)O)CC1 (stereo not drawn)	–
0.73 µM	0.0045 µM	CS(=O)(=O)c1cc(-c2cccs2)c2c(c1)c1c(n2Cc2ccc(Cl)cc2)C(CC(=O)O)CC1 (stereo not drawn)	–
1.1 µM	0.0097 µM	CS(=O)(=O)c1cc(C#N)c2c(c1)c1c(n2Cc2ccc(Cl)cc2)C(CC(=O)O)CC1 (stereo not drawn)	–
0.33 µM	0.0028 µM	CS(=O)(=O)c1cc(C2CCCCC2)c2c(c1)c1c(n2Cc2ccc(Cl)cc2)C(CC(=O)O)CC1 (stereo not drawn)	–
3.7 µM	0.028 µM	CN(C)C(=O)c1cccc2c3c(n(Cc4ccc(Cl)cc4)c12)C(CC(=O)O)CCC3 (stereo not drawn)	–
0.14 µM	0.0039 µM	O=C(O)CC1CCCc2c1n(Cc1ccc(Cl)cc1)c1c([S+]([O-])Cc3ccccc3)cccc21 (stereo not drawn)	–
0.0017 µM	0.011 µM	O=C(O)CC1CCCc2c1n(Cc1ccc(Cl)cc1)c1c(F)cc(F)cc21 (stereo not drawn)	Ki [3]: > 2.9 µM; Ki [4]: > 0.3 µM; Ki [6]: > 4.6 µM; Ki [7]: > 2 µM; Ki [8]: > 20 µM; Ki [10]: > 7 µM
0.82 µM	0.0075 µM	CC(C)(C)c1ccc(Cn2c3c(c4cc(S(C)(=O)=O)cc(Br)c42)CCC3CC(=O)O)cc1 (stereo not drawn)	–
0.0078 µM	0.016 µM	O=C(O)CC1CCCc2c1n(Cc1ccc(Cl)cc1)c1c(CO)cccc21 (stereo not drawn)	–
0.26 µM	0.0041 µM	CS(=O)(=O)c1cc(Br)c2c(c1)c1c(n2Cc2cccc(OC(F)(F)F)c2)C(CC(=O)O)CC1 (stereo not drawn)	–
0.0066 µM	0.0063 µM	O=Cc1cccc2c3c(n(Cc4ccc(Cl)cc4)c12)C(CC(=O)O)CCC3 (stereo not drawn)	–
0.0051 µM	0.0019 µM	CS(=O)(=O)c1cccc2c3c(n(Cc4ccc(Cl)cc4)c12)C(CC(=O)O)CCC3 (stereo not drawn)	–
2.7 µM	1.9 µM	CS(=O)(=O)c1ccc(Cn2c3c(c4cc(S(C)(=O)=O)cc(Br)c42)CCC3CC(=O)O)cc1 (stereo not drawn)	–

Ki [1]	Ki [2]	SMILES	further results
0.76 µM	0.0035 µM	CS(=O)(=O)c1cc(Br)c2c(c1)c1c(n2Cc2cccc(Cl)c2)C(CC(=O)O)CC1 (stereo not drawn)	–
0.22 µM	0.0044 µM	CS(=O)(=O)c1cc(Br)c2c(c1)c1c(n2Cc2ccc3sc(Cl)c(Cl)c3n2)C(CC(=O)O)CC1 (stereo not drawn)	–
0.99 µM	0.08 µM	CS(=O)(=O)c1ccc2c(c1)c1c(n2Cc2ccc(Cl)cc2)C(CC(=O)O)CCC1 (stereo not drawn)	–
0.0091 µM	0.0017 µM	CC(C)c1cccc2c3c(n(Cc4ccc(Cl)cc4)c12)C(CC(=O)O)CCC3 (stereo not drawn)	–
0.52 µM	0.0036 µM	C=Cc1cc(S(C)(=O)=O)cc2c3c(n(Cc4ccc(Cl)cc4)c12)C(CC(=O)O)CC3 (stereo not drawn)	–
0.0026 µM	0.001 µM	CSc1cccc2c3c(n(Cc4ccc(Cl)cc4)c12)C(CC(=O)O)CCC3 (stereo not drawn)	–
2.3 µM	1.1 µM	CN(C)S(=O)(=O)c1ccc2c(c1)c1c(n2Cc2ccc(Cl)cc2)C(CC(=O)O)CC1 (stereo not drawn)	–
0.0022 µM	0.0026 µM	O=C(O)CC1CCCc2c1n(Cc1ccc(Cl)cc1)c1c(Br)cccc21 (stereo not drawn)	–
0.088 µM	0.11 µM	O=C(O)CC1CCCc2c1n(Cc1ccc(Cl)cc1)c1c(C(=O)Nc3ccccc3)cccc21 (stereo not drawn)	–
1.8 µM	0.023 µM	CC(C)[S+]([O-])c1cccc2c3c(n(Cc4ccc(Cl)cc4)c12)C(CC(=O)O)CCC3 (stereo not drawn)	–
16 µM	0.0085 µM	CC(O)c1cc(S(C)(=O)=O)cc2c3c(n(Cc4ccc(Cl)cc4)c12)C(CC(=O)O)CC3 (stereo not drawn)	–
0.096 µM	0.029 µM	O=C(O)CC1CCCc2c1n(Cc1ccc(Cl)cc1)c1c([S+]([O-])c3ccccc3)cccc21 (stereo not drawn)	–
0.34 µM	0.004 µM	CC[S+]([O-])c1cccc2c3c(n(Cc4ccc(Cl)cc4)c12)C(CC(=O)O)CCC3 (stereo not drawn)	–
3.6 µM	0.0095 µM	CC(=O)c1cc(S(C)(=O)=O)cc2c3c(n(Cc4ccc(Cl)cc4)c12)C(CC(=O)O)CC3 (stereo not drawn)	–
0.172 µM	0.0028 µM	C[S+]([O-])c1cccc2c3c(n(Cc4ccc(Cl)cc4)c12)C(CC(=O)O)CCC3 (stereo not drawn)	–
1.2 µM	0.0026 µM	CC(=O)c1cc(S(C)(=O)=O)cc2c3c(n(Cc4ccc(Cl)cc4)c12)[C@@H](CC(=O)O)CC3	Ki [3]: > 20 µM; Ki [4]: > 20 µM; IC50 [5]: 0.0079 µM; Ki [6]: 0.23 µM; Ki [7]: > 20 µM; Ki [8]: > 20 µM; IC50 [9]: 0.002 µM; Ki [10]: > 20 µM
0.13 µM	–	C[S+]([O-])c1cccc2c3c(n(Cc4ccc(Cl)cc4)c12)[C@@H](CC(=O)O)CCC3 (single isomer, unassigned; 16)	–
0.047 µM	0.0018 µM	C[S+]([O-])c1cccc2c3c(n(Cc4ccc(Cl)cc4)c12)[C@@H](CC(=O)O)CCC3 (single isomer, unassigned; 17)	–
